Assays:
LPS injured mice [1] = assay: Lung injury (inflammation) score of H&E lung sections, LPS-injured mice, single inhaled dose; type: in vivo, C57BL/6J mice; settings: LPS 1.5 mg/kg intranasal; 24 hours later single aerosolized dose 35 mg/kg; sacrifice one hour after; vs LPS alone p<0.001
Protocol: (§1) We next determined if inhaled Compound 1 attenuated specific features of acute inflammatory lung injury that were also observed in response to LPS. Again, 12-week-old male C57BL/6J mice were intranasally instilled with LPS (1.5 mg/kg of 1 mg/ml solution in sterile PBS). 24 hours later, these mice received a single dose of aerosolized MMP inhibitor (Compound 1, dissolved in PBS, 35 mg/kg) or PBS alone and a tail vein injection of FITC labeled albumin (FITC-albumin). One hour following nebulization, the mice were sacrificed. The left lung was fixed in formalin from each animal, paraffin embedded, sectioned and stained with H&E to examine histological features indicative of lung injury. These were achieved by visually scoring each slide based on a lung injury scoring system developed by the American Thoracic Society for animal models of inflammatory lung injury.

LPS injured mice [2] = assay: Lung injury score (LIS) and H&E sections, LPS-injured mice, q6h x 4 doses; type: in vivo
neutrophils [3] = assay: Neutrophil influx: myeloperoxidase staining and BALF differential cell counts, LPS-injured mice, q6h x 4 doses; type: in vivo
Protocol: Mice were nasally instilled with LPS followed by treatment with CGS every 6 hours for 4 doses. Mice were sacrificed 6 hours after the 4th dose of Compound 1 and lungs and BALF were collected for analysis. Paraffin embedded lung sections ([…]) were stained for myeloperoxidase, a neutrophil marker, followed by detection using DAB, to assess parenchymal neutrophil infiltration.
Differential cell counts were taken from each animal's cytospin with at least 3 separate images counted.

[4] = Lung and serum levels after nebulized Compound 1 in mice (mass spectroscopy); type: in vivo
Protocol: The compound was administered with a nebulizer of (FIG. 1A). With a 9 cc Medication Nebulizer, a dose of liquid medicine was prepared to a final concentration of 5 ml (3 mg/mL). Treatment was for approximately 20-30 minutes until all liquid was delivered. […] The nebulizer includes a Hospital grade Schuco air compressor 100, Blue top medication nebulizer 110, Plastic collar 120, White elbow hose connector 130, 7′ crush proof 02 tubing to air compressor 140, and MPC Aerosol Pie Cage 150. Technical Specifications of the nebulizing system were as follows:
The pie cage 150 has 12 slots to hold 12 mice.
10 mice were divided into three trial groups:
Low dose group: 3 mice at 2 mg dose (˜5 mg/kg) Medium dose group: 3 mice at 5 mg dose (˜12 mg/kg) High dose group: 4 mice at 10 mg dose (˜35 mg/kg)
The mice were nebulized within their respective dosing group for fifteen minutes (starting with the lowest dosing and moving up to the highest). One mouse was sacrificed per group at 1 hour, 3 hours and 5 hours after the drug delivery (2 mice were sacrificed for the 10 mg dose group).
[…] were collected during sacrifice: upper and lower left lung, right lung, and serum. The order of sample collection was: first blood, then left lung, then right lung. Before removing the right lung, but after removing the left lung, the right lung was lavaged. The lung samples were immediately placed into liquid nitrogen and the blood samples rested for 4 hours at room temperature. After the blood clotted it was centrifuged and the serum was taken into a new tube. Lung and serum samples were then analyzed by mass spectroscopy.

LPS injured mice [5] = assay: Lung wet:dry weight ratio, LPS-injured mice, q6h x 4 doses; type: in vivo; settings: LPS then Compound 1 every 6 hours for 4 doses; right lung; n=5 (LPS alone 19.44±1.6, PBS 7.5±0.12)
Protocol: Based on the data, the effect of a 6 hour dosing interval (q6h) of Compound 1 on injured mice lung was explored. FIG. 8B schematizes the experimental LPS injury/Compound 1 treatment workflow utilized unless otherwise indicated. Briefly, mice were nasally instilled with LPS (1.5 mg/kg) followed by initiation of Compound 1 treatment 24 hours later (i.e., after a 24 hours rest period). Four doses of Compound 1 (12 mg/kg) were administered via nebulizer every 6 hours to maintain a constant presence of compound in the lung. PBS was administered as a control. Mice were sacrificed 6 hours following the fourth dose. A major feature of ALI/ARDS is non-cardiogenic pulmonary edema resulting in profound hypoxemia. […] We next investigated if attenuation of edema occurred with the alternative treatment schedule where LPS-injured mice were treated with Compound 1 every 6 hours for 4 doses. Total lung edema was determined by assessing lung wet:dry ratios under each experimental condition. Following completion of Compound 1 treatment, the right lung was removed and immediately weighed followed by desiccation for 72 hours and weighed a second time to determine the dry weight. Wet:dry weight ratios were then calculated.

neutrophils [6] = assay: MTT assay of neutrophil viability; type: cell-based, human; settings: 1 hour exposure, high and low concentrations
Protocol: To ensure the observed effects were not a result of reduced neutrophil viability, an MTT assay was utilized. Neutrophils were exposed to Compound 1 for 1 hour followed by addition of MTT to the culture medium for 30 minutes. Cells were then solubilized in DMSO and the absorbances were read on a microplate reader.

LPS injured mice [7] = assay: FITC-albumin BALF:serum ratio (vascular permeability/edema), LPS-injured mice, single inhaled dose; type: in vivo, C57BL/6J mice; settings: LPS 1.5 mg/kg; 24 hours later single aerosolized dose 35 mg/kg; sacrifice one hour after; n=6/group (control 0.44, LPS 1.1)
Protocol: as §1
Tissue edema was assessed using two methods. First, serum and BALF fluid were collected from mice and FITC-albumin levels were measured in each using a fluorescent microplate reader. Fluid leakage into injured lungs is indicative of increased vascular permeability and could be indicative of edema. A greater fluid leakage would also be characterized by increased levels of FITC-albumin in the BALF. To determine the level of vascular permeability and edema, the ratio of BALF FITC-albumin to serum FITC-albumin was calculated. […]

butanamide, N-hydroxy-2-[[(4-hydroxyphenyl)sulfonyl](3-pyridinylmethyl)amino]-3-methyl, hydrochloride, (2R) [Compound 1]
lung injury score (Inflammation Score) (LPS injured mice [1]): reduces the lung injury score | Lung Injury Score (LIS) (LPS injured mice [2]; LPS 1.5 mg/kg, four doses (12 mg/kg) via nebulizer every 6 hours from 24 hours after LPS, n=5 (LPS only 0.524±0.054, PBS only 0.188±0.025)): 0.277±0.031 LIS | inflammation in H&E stained lung sections (qualitative) (LPS injured mice [2]; LPS then four nebulized doses every 6 hours, vs mice only receiving LPS): reduced inflammation | overall inflammatory cell count in BALF (neutrophils [3]; LPS then every 6 hours for 4 doses, n≥4 (LPS only 8.0e6±5.7e6)): 8.6e5±3.7e5 cells/mL | parenchymal neutrophil infiltration (myeloperoxidase staining) (neutrophils [3]; LPS then every 6 hours for 4 doses, sacrifice 6 hours after 4th dose): qualitatively reduced parenchymal neutrophil infiltration | neutrophil count within the BALF (neutrophils [3]; LPS-CGS group, every 6 hours for 4 doses, n≥5 (LPS-PBS 8.0e6±5.7e6)): 2.4e6±1.2e6 cells/ml | Mouse Lung MMI 270 ([4]; High Dose (10 mg, ~35 mg/kg, nebulized), 1 hour later, Left Lung Lower Lobe): 1415.95 ng/g | Mouse Lung MMI 270 ([4]; High Dose (10 mg, ~35 mg/kg, nebulized), 1 hour later, Right Lung Lower Lobe): 598.24 ng/g | Mouse Serum MMI 270 ([4]; High Dose (10 mg, ~35 mg/kg, nebulized), 1 hour later): 87.99 ng/mL | Mouse Lung MMI 270 ([4]; High Dose (10 mg, ~35 mg/kg, nebulized), 3 hour later, Left Lung Lower Lobe): 119.51 ng/g | Mouse Lung MMI 270 ([4]; High Dose (10 mg, ~35 mg/kg, nebulized), 3 hour later, Right Lung Lower Lobe): 50.75 ng/g | Mouse Serum MMI 270 ([4]; High Dose (10 mg, ~35 mg/kg, nebulized), 3 hour later): 7.93 ng/mL | Mouse Lung MMI 270 ([4]; High Dose (10 mg, ~35 mg/kg, nebulized), 5 hour later, Left Lung Lower Lobe): 70.67 ng/g | Mouse Lung MMI 270 ([4]; High Dose (10 mg, ~35 mg/kg, nebulized), 5 hour later, Right Lung Lower Lobe): 23.36 ng/g | Mouse Serum MMI 270 ([4]; High Dose (10 mg, ~35 mg/kg, nebulized), 5 hour later): 3.79 ng/mL | Mouse Lung MMI 270 ([4]; Low Dose (2 mg, ~5 mg/kg, nebulized), 1 hour later, Left Lung Lower Lobe): 102.10 ng/g | Mouse Lung MMI 270 ([4]; Low Dose (2 mg, ~5 mg/kg, nebulized), 1 hour later, Right Lung Lower Lobe): 155.55 ng/g | Mouse Serum MMI 270 ([4]; Low Dose (2 mg, ~5 mg/kg, nebulized), 1 hour later): 2.97 ng/mL | Mouse Lung MMI 270 ([4]; Low Dose (2 mg, ~5 mg/kg, nebulized), 3 hour later, Left Lung Lower Lobe): 42.92 ng/g | Mouse Lung MMI 270 ([4]; Low Dose (2 mg, ~5 mg/kg, nebulized), 3 hour later, Right Lung Lower Lobe): 12.60 ng/g | Mouse Serum MMI 270 ([4]; Low Dose (2 mg, ~5 mg/kg, nebulized), 3 hour later): <LLOQ | Mouse Lung MMI 270 ([4]; Low Dose (2 mg, ~5 mg/kg, nebulized), 5 hour later, Left Lung Lower Lobe): 13.21 ng/g | Mouse Lung MMI 270 ([4]; Low Dose (2 mg, ~5 mg/kg, nebulized), 5 hour later, Right Lung Lower Lobe): <LLOQ | Mouse Serum MMI 270 ([4]; Low Dose (2 mg, ~5 mg/kg, nebulized), 5 hour later): <LLOQ | Mouse Lung MMI 270 ([4]; Medium Dose (5 mg, ~12 mg/kg, nebulized), 1 hour later, Left Lung Lower Lobe): 465.18 ng/g | Mouse Lung MMI 270 ([4]; Medium Dose (5 mg, ~12 mg/kg, nebulized), 1 hour later, Right Lung Lower Lobe): 127.68 ng/g | Mouse Serum MMI 270 ([4]; Medium Dose (5 mg, ~12 mg/kg, nebulized), 1 hour later): 20.06 ng/mL | Mouse Lung MMI 270 ([4]; Medium Dose (5 mg, ~12 mg/kg, nebulized), 3 hour later, Left Lung Lower Lobe): 49.60 ng/g | Mouse Lung MMI 270 ([4]; Medium Dose (5 mg, ~12 mg/kg, nebulized), 3 hour later, Right Lung Lower Lobe): 18.92 ng/g | Mouse Serum MMI 270 ([4]; Medium Dose (5 mg, ~12 mg/kg, nebulized), 3 hour later): 3.40 ng/mL | Mouse Lung MMI 270 ([4]; Medium Dose (5 mg, ~12 mg/kg, nebulized), 5 hour later, Left Lung Lower Lobe): 26.04 ng/g | Mouse Lung MMI 270 ([4]; Medium Dose (5 mg, ~12 mg/kg, nebulized), 5 hour later, Right Lung Lower Lobe): 13.55 ng/g | Mouse Serum MMI 270 ([4]; Medium Dose (5 mg, ~12 mg/kg, nebulized), 5 hour later): <LLOQ | wet:dry weight ratio (LPS injured mice [5]): 11.80±0.86 | neutrophil viability (MTT, reductive capacity) (neutrophils [6]): no significant effect on neutrophil viability | ratio of BALF FITC-albumin to serum FITC-albumin (LPS injured mice [7]): 0.49
